# ChEMBL document CHEMBL1201862, “PubChem BioAssay data set” (2004)
#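 Test compounds were applied to cells in 96-well plates for 48 hours at 5 doses. GI50 = concentration required for 50% inhibition of growth.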 Activity calls are given as the source filed them. Cut-off read from the data, not from the text of the source: active = GI50 up to about 1.1 µM and inactive = higher.
# Legend:
# Experiment in all cases: NCI-60 cell line screen, 48 h
# A549 = test system: A549
# UACC-62 = test system: UACC-62
# 786-0 = test system: 786-0
# ACHN = test system: ACHN
# PC-3 = test system: PC-3
# UACC-257 = test system: UACC-257
# SF-268 = test system: SF-268
# HOP-62 = test system: HOP-62
# COLO 205 = test system: COLO 205
# A498 = test system: A498
# NCI-H522 = test system: NCI-H522
# NCI-H23 = test system: NCI-H23
# RXF 393 = test system: RXF 393
# EKVX = test system: EKVX
# SK-OV-3 = test system: SK-OV-3
# SK-MEL-5 = test system: SK-MEL-5
# MDA-MB-231 = test system: MDA-MB-231
# MOLT-4 = test system: MOLT-4
# HT-29 = test system: HT-29
# RPMI-8226 = test system: RPMI-8226
SMILES,GI50 (A549),GI50 (UACC-62),GI50 (786-0),GI50 (ACHN),GI50 (PC-3),GI50 (UACC-257),GI50 (SF-268),GI50 (HOP-62),GI50 (COLO 205),GI50 (A498),GI50 (NCI-H522),GI50 (NCI-H23),GI50 (RXF 393),GI50 (EKVX),GI50 (SK-OV-3),GI50 (SK-MEL-5),GI50 (MDA-MB-231),GI50 (MOLT-4),GI50 (HT-29),GI50 (RPMI-8226)
CC(C)C(C/C=C1\CC(CO)(COC(=O)C(C)(C)C)OC1=O)C(C)C (centres undefined),4.42 µM (inactive),15.2 µM (inactive),2.65 µM (inactive),11 µM (inactive),5.05 µM (inactive),16 µM (inactive),13.2 µM (inactive),3.11 µM (inactive),1.64 µM (inactive),14.1 µM (inactive),14.1 µM (inactive),4.9 µM (inactive),15.6 µM (inactive),11.1 µM (inactive),15.1 µM (inactive),3.72 µM (inactive),5.24 µM (inactive),0.581 µM (active),19.3 µM (inactive),–
Cc1cc(N(CCC#N)S(=O)(=O)c2ccccc2)ccc1/C=N/c1ccc(C(=O)O)cc1,31.6 µM (inactive),17.4 µM (inactive),5.45 µM (inactive),–,> 100 µM (inactive),16.9 µM (inactive),> 41 µM (inactive),31 µM (inactive),6.41 µM (inactive),29.6 µM (inactive),5.51 µM (inactive),16.1 µM (inactive),1.7 µM (inactive),17.9 µM (inactive),34.1 µM (inactive),13.8 µM (inactive),> 100 µM (inactive),6.98 µM (inactive),15.7 µM (inactive),–
CCN(CC)Cc1cc(Nc2c3ccccc3nc3c2[nH]c2ccccc23)cc(CN(CC)CC)c1O,0.566 µM (active),1.55 µM (inactive),0.216 µM (active),0.634 µM (active),0.64 µM (active),1.42 µM (inactive),0.813 µM (active),0.598 µM (active),0.366 µM (active),1.53 µM (inactive),0.624 µM (active),1.11 µM (active),0.28 µM (active),1.45 µM (inactive),3.25 µM (inactive),1.6 µM (inactive),1.05 µM (active),–,0.35 µM (active),–
O=C(COc1ccc(OCC(=O)N2C(=O)CS/C2=N\c2ccccc2)cc1)N1C(=O)CS/C1=N\c1ccccc1,23.6 µM (inactive),8.13 µM (inactive),19.2 µM (inactive),12.5 µM (inactive),14.8 µM (inactive),23.7 µM (inactive),27.5 µM (inactive),–,20.5 µM (inactive),60 µM (inactive),11.1 µM (inactive),19.5 µM (inactive),30.3 µM (inactive),32.8 µM (inactive),48.5 µM (inactive),11.6 µM (inactive),15.6 µM (inactive),14.6 µM (inactive),14.4 µM (inactive),22.5 µM (inactive)
C#CC[C@@H]1C(=O)N(Cc2ccc(OC)cc2)[C@@H](C(C)C)C(=O)N1Cc1ccc(OC)cc1,36.1 µM (inactive),25.2 µM (inactive),44.9 µM (inactive),45.4 µM (inactive),24 µM (inactive),29.9 µM (inactive),82.2 µM (inactive),> 100 µM (inactive),19.4 µM (inactive),36 µM (inactive),28 µM (inactive),33.2 µM (inactive),2.79 µM (inactive),28.4 µM (inactive),> 100 µM (inactive),15.6 µM (inactive),83.2 µM (inactive),15.1 µM (inactive),26.8 µM (inactive),–
Nc1ncc(CN2CCOCC2)c(-c2ccccc2O)n1,> 100 µM (inactive),> 100 µM (inactive),> 100 µM (inactive),> 100 µM (inactive),> 100 µM (inactive),> 100 µM (inactive),> 100 µM (inactive),> 100 µM (inactive),> 100 µM (inactive),> 100 µM (inactive),–,> 100 µM (inactive),> 100 µM (inactive),> 100 µM (inactive),> 100 µM (inactive),> 100 µM (inactive),> 100 µM (inactive),> 100 µM (inactive),> 100 µM (inactive),> 100 µM (inactive)
Cc1nc2ccc(F)cc2c2c1CCN2c1ccc(Cl)cc1,17.2 µM (inactive),10.9 µM (inactive),7.66 µM (inactive),13.7 µM (inactive),3.85 µM (inactive),3.51 µM (inactive),30.8 µM (inactive),13.1 µM (inactive),6.71 µM (inactive),20.9 µM (inactive),6.78 µM (inactive),5.15 µM (inactive),18 µM (inactive),–,29 µM (inactive),3.56 µM (inactive),4.04 µM (inactive),–,3.61 µM (inactive),–
CC(=O)Oc1cc2c(c3ncccc13)OC(C)(C)C2,12.9 µM (inactive),> 100 µM (inactive),14.6 µM (inactive),11.1 µM (inactive),20.7 µM (inactive),15.5 µM (inactive),10.8 µM (inactive),5.85 µM (inactive),18.1 µM (inactive),16.9 µM (inactive),1.17 µM (inactive),> 100 µM (inactive),12.4 µM (inactive),–,27.2 µM (inactive),12.5 µM (inactive),10.1 µM (inactive),12.3 µM (inactive),15.7 µM (inactive),20.3 µM (inactive)
CCOC(=S)SSSC(=S)OCC,33.7 µM (inactive),37.9 µM (inactive),15.2 µM (inactive),19.1 µM (inactive),> 100 µM (inactive),50.5 µM (inactive),71.3 µM (inactive),30.3 µM (inactive),55 µM (inactive),> 100 µM (inactive),–,33.4 µM (inactive),47.9 µM (inactive),48.5 µM (inactive),> 100 µM (inactive),36.1 µM (inactive),33.1 µM (inactive),27.9 µM (inactive),54.3 µM (inactive),24 µM (inactive)
Cc1c(C#N)c(N)n(C2OCC(O)C(O)C2O)c(=S)c1C#N (centres undefined),> 100 µM (inactive),> 100 µM (inactive),> 100 µM (inactive),> 100 µM (inactive),> 100 µM (inactive),> 100 µM (inactive),> 100 µM (inactive),> 100 µM (inactive),–,> 100 µM (inactive),> 100 µM (inactive),> 100 µM (inactive),> 100 µM (inactive),–,> 100 µM (inactive),> 100 µM (inactive),> 100 µM (inactive),> 100 µM (inactive),> 100 µM (inactive),> 100 µM (inactive)
CCCCN1C(=O)CC2[C@@H]3CCc4cc(OC(C)=O)ccc4C3CC[C@]2(C)C1=O (some centres undefined),> 10 µM (inactive),> 10 µM (inactive),> 10 µM (inactive),> 10 µM (inactive),> 10 µM (inactive),> 10 µM (inactive),> 10 µM (inactive),> 10 µM (inactive),> 10 µM (inactive),> 10 µM (inactive),–,> 10 µM (inactive),> 10 µM (inactive),> 10 µM (inactive),> 10 µM (inactive),> 10 µM (inactive),> 10 µM (inactive),> 10 µM (inactive),> 10 µM (inactive),> 10 µM (inactive)
CCCOc1ccc2sc(NC(=O)c3cc([N+](=O)[O-])cc([N+](=O)[O-])c3)nc2c1,24.1 µM (inactive),25.5 µM (inactive),52.2 µM (inactive),48.4 µM (inactive),28.4 µM (inactive),–,43.8 µM (inactive),78.9 µM (inactive),54.1 µM (inactive),23.7 µM (inactive),–,23 µM (inactive),48.4 µM (inactive),19.4 µM (inactive),36.5 µM (inactive),17 µM (inactive),35 µM (inactive),36.3 µM (inactive),69.8 µM (inactive),31.8 µM (inactive)
CC(C)(C)[Si](C)(C)OCC1OC(n2ccc(=O)[nH]c2=O)C(O[Si](C)(C)C(C)(C)C)[C@@]12O[C@H]2C(N)=O (some centres undefined),5.75 µM (inactive),18.7 µM (inactive),5.11 µM (inactive),6.05 µM (inactive),5.61 µM (inactive),26.2 µM (inactive),9.2 µM (inactive),13.8 µM (inactive),7.64 µM (inactive),> 10 µM (inactive),2.22 µM (inactive),12.2 µM (inactive),–,16.2 µM (inactive),19 µM (inactive),4.06 µM (inactive),4.61 µM (inactive),6.53 µM (inactive),3.39 µM (inactive),6.17 µM (inactive)
O=C1/C(=C\c2ccc(O)cc2)CCC/C1=C/c1ccc(Cl)c(Cl)c1,3.78 µM (inactive),2.28 µM (inactive),2.43 µM (inactive),3.52 µM (inactive),3.57 µM (inactive),4.19 µM (inactive),3.35 µM (inactive),4.17 µM (inactive),1.76 µM (inactive),3.39 µM (inactive),–,3.13 µM (inactive),2.38 µM (inactive),7.69 µM (inactive),4.37 µM (inactive),7.11 µM (inactive),3.38 µM (inactive),1.82 µM (inactive),1.63 µM (inactive),2.44 µM (inactive)
O=C1CCCCC/C1=C\c1ccc(Cl)cc1,36.1 µM (inactive),25.2 µM (inactive),32.4 µM (inactive),32.1 µM (inactive),19.9 µM (inactive),32.4 µM (inactive),14.5 µM (inactive),99.8 µM (inactive),18.2 µM (inactive),33 µM (inactive),25.4 µM (inactive),31.6 µM (inactive),–,44.3 µM (inactive),60 µM (inactive),13.9 µM (inactive),73.6 µM (inactive),26.2 µM (inactive),21.8 µM (inactive),25.4 µM (inactive)
